Experimental data: US20050090529A1, “3,5 Disubstituted indazole compounds with nitrogen-bearing 5-membered heterocycles, pharmaceutical compositions, and methods for mediating or inhibiting cell proliferation” (PFIZER INC, priority 2003, published 2005)
≈ marks a conversion by molar mass, not a printed value. Where two headings read alike, the source gives them in different places.

Tests used:
[1] = target: T1, CDK2/Cyclin A (Homo sapiens, UniProt P24941); experiment: Inhibition of CDK2/Cyclin A retinoblastoma kinase activity (apparent Ki); format: biochemical
T1 construct: made in house; host or cells: CDK2: insect cells (baculovirus); cyclin A: E. coli
Protocol: Cyclin-dependent kinase activity was measured by quantifying the enzyme-catalyzed, time-dependent incorporation of radioactive phosphate from [^32P]ATP or [^33P]ATP into a protein substrate. […] Reactions were initiated with enzyme, incubated at 30° C., and terminated after 20 minutes by the addition of ethylenediaminetetraacetic acid (EDTA) to 250 mM. […] Radioactivity was quantified by exposing the dried membranes to a phosphorimager.
Apparent Ki values were measured by assaying enzyme activity in the presence of different inhibitor compound concentrations and subtracting the background radioactivity measured in the absence of enzyme. Inhibition data were fit to an equation for competitive inhibition using Kaleidagraph (Synergy Software), or were fit to an equation for competitive tight-binding inhibition using the software KineTic (BioKin, Ltd.).
A complex of CDK2 and proteolyzed cyclin A was prepared and purified by gel filtration. […] Ki values were measured as described above.

[2] = Measurement of kinetic solubility; conditions: 100 mM sodium phosphate buffer, pH 6.5, aqueous buffer, kinetic from dmso stock
Protocol: Kinetic solubility was determined with a […] stock solution from the compound(s) of interest. […] Samples and standards were then centrifuged and an aliquot was removed for HPLC analysis. Samples and standards were analyzed by HPLC and a final concentration for the sample was determined based on a one-point calibration curve from the corresponding standard. Results were reported as μg's/mL.

Ki ([1]; read-out: CDK2 Ki) [nM] | solubility [2] [µg/mL] | Structure (SMILES) | Ki [1] [nM]
50 to 200 | > 120 | CCNCc1cncc(-c2ccc3[nH]nc(-c4nc(C(=O)NC5CCNCC5)c[nH]4)c3c2)c1C [Example 76, 2-(5-{5-[(ethylamino)methyl]-4-methylpyridin-3-yl}-1H-indazol-3-yl)-N-piperidin-4-yl-1H-imidazole-5-carboxamide] | –
> 200 | 20 to 120 (≈ 38.3 to 230 µM) | CCNCc1cncc(-c2ccc3[nH]nc(-c4nc(-c5ccccc5)c(C(=O)N5CCOCC5)[nH]4)c3c2)c1C [Example 10, {2-[5-(5-Ethylaminomethyl-4-methyl-pyridin-3-yl)-1H-indazol-3-yl]-5-phenyl-3H-imidazol-4-yl}-morpholin-4-yl-methanone] | –
50 to 200 | > 120 | CCNCc1cncc(-c2ccc3[nH]nc(-c4nc(C(=O)O)c[nH]4)c3c2)c1C [Example 86, 2-(5-{5-[(ethylamino)methyl]-4-methylpyridin-3-yl}-1H-indazol-3-yl)-1H-imidazole-5-carboxylic acid] | –
< 50 | > 120 | CCNCc1cncc(-c2ccc3[nH]nc(-c4ncc[nH]4)c3c2)c1CC [Example 47, Ethyl-{4-ethyl-5-[3-(1H-imidazol-2-yl)-1H-indazol-5-yl]-pyridin-3-ylmethyl}-amine] | –
50 to 200 | > 120 | CCNCc1cncc(-c2ccc3[nH]nc(-c4cnc(-c5ccncc5)[nH]4)c3c2)c1C [Example 96, Ethyl-{4-methyl-5-[3-(2-pyridin-4-yl-3H-imidazol-4-yl)-1H-indazol-5-yl]-pyridin-3-ylmethyl}-amine] | –
< 50 | > 120 | CCNCc1cncc(-c2ccc3[nH]nc(-c4ncc(C(=O)NCCN(C)C)[nH]4)c3c2)c1C [Example 54, N-[2-(dimethylamino)ethyl]-2-(5-{5-[(ethylamino)methyl]-4-methylpyridin-3-yl}-1H-indazol-3-yl)-1H-imidazole-5-carboxamide] | –
50 to 200 | 20 to 120 (≈ 41.7 to 250 µM) | CCNCc1cncc(-c2ccc3[nH]nc(-c4nc(-c5ccccc5)c(C(=O)NCC)[nH]4)c3c2)c1C [Example 2, 2-[5-(5-Ethylaminomethyl-4-methyl-pyridin-3-yl)-1H-indazol-3-yl]-5-phenyl-3H-imidazole-4-carboxylic acid ethylamide] | –
50 to 200 | > 120 | CCOCc1cncc(-c2ccc3[nH]nc(-c4ncc[nH]4)c3c2)c1C [Example 44, 5-(5-Ethoxymethyl-4-methyl-pyridin-3-yl)-3-(1H-imidazol-2-yl)-1H-indazole] | –
< 50 | > 120 | CCNCc1cncc(-c2ccc3[nH]nc(-c4ncc(C(=O)N5CCC(Cc6ncccn6)CC5)[nH]4)c3c2)c1C [Example 85, N-({4-methyl-5-[3-(5-{[4-(pyrimidin-2-ylmethyl)piperidin-1-yl]carbonyl}-1H-imidazol-2-yl)-1H-indazol-5-yl]pyridin-3-yl}methyl)ethanamine] | –
< 50 | < 20 | CCNCc1cncc(-c2ccc3[nH]nc(-c4ncc(C(=O)NC5C6CC7CC(C6)CC5C7)[nH]4)c3c2)c1C (stereo not shown) [Example 72, N-2-adamantyl-2-(5-{5-[(ethylamino)methyl]-4-methylpyridin-3-yl}-1H-indazol-3-yl)-1H-imidazole-5-carboxamide] | –
< 50 | > 120 | CCNCc1cncc(-c2ccc3[nH]nc(-c4nc(-c5cccc(F)c5)c[nH]4)c3c2)c1C [Example 32, Ethyl-(5-{3-[4-(3-fluoro-phenyl)-1H-imidazol-2-yl]-1H-indazol-5-yl}-4-methyl-pyridin-3-ylmethyl)-amine] | –
50 to 200 | 20 to 120 (≈ 51.6 to 310 µM) | CCOCc1cncc(-c2ccc3[nH]nc(-c4nc5c([nH]4)CCCC5)c3c2)c1C [Example 43, 5-(5-Ethoxymethyl-4-methyl-pyridin-3-yl)-3-(4,5,6,7-tetrahydro-1H-benzoimidazol-2-yl)-1H-indazole] | –
50 to 200 | > 120 | CCNCc1cncc(-c2ccc3[nH]nc(C(N)=O)c3c2)c1C [Example 97, 5-(5-Ethylaminomethyl-4-methyl-pyridin-3-yl)-1H-indazole-3-carboxylic acid amide] | –
< 50 | < 20 | CCNCc1cncc(-c2ccc3[nH]nc(-c4ncc(C(=O)N5Cc6ccccc6C5)[nH]4)c3c2)c1C [Example 68, N-[(5-{3-[5-(1,3-dihydro-2H-isoindol-2-ylcarbonyl)-1H-imidazol-2-yl]-1H-indazol-5-yl}-4-methylpyridin-3-yl)methyl]ethanamine] | –
< 50 | 20 to 120 (≈ 66.6 to 400 µM) | c1ncc(-c2n[nH]c3ccc(-c4cncc5[nH]ccc45)cc23)[nH]1 [Example 95, 3-(3H-Imidazol-4-yl)-5-(1H-pyrrolo[2,3-c]pyridin-4-yl)-1H-indazole] | –
> 200 | 20 to 120 (≈ 36.5 to 219 µM) | CCNCc1cncc(-c2ccc3[nH]nc(-c4nc(-c5ccccc5)c(C(=O)N(C)C5CCCCC5)[nH]4)c3c2)c1C [Example 13, 2-[5-(5-Ethylaminomethyl-4-methyl-pyridin-3-yl)-1H-indazol-3-yl]-5-phenyl-3H-imidazole-4-carboxylic acid cyclohexyl-methyl-amide] | –
50 to 200 | > 120 | CCNCc1cncc(-c2ccc3[nH]nc(-c4cnco4)c3c2)c1C [Example 87, N-({4-methyl-5-[3-(1,3-oxazol-5-yl)-1H-indazol-5-yl]pyridin-3-yl}methyl)ethanamine] | –
< 50 | 20 to 120 (≈ 35.9 to 216 µM) | CCNCc1cncc(-c2ccc3[nH]nc(-c4ncc(C(=O)N5CCN(c6ccc(F)cc6F)CC5)[nH]4)c3c2)c1C [Example 69, N-({5-[3-(5-{[4-(2,4-difluorophenyl)piperazin-1-yl]carbonyl}-1H-imidazol-2-yl)-1H-indazol-5-yl]-4-methylpyridin-3-yl}methyl)ethanamine] | –
< 50 | 20 to 120 (≈ 43.7 to 262 µM) | CCNCc1cncc(-c2ccc3[nH]nc(-c4nc(C(=O)NC5CCCCC5)c[nH]4)c3c2)c1C [Example 50, N-cyclohexyl-2-(5-{5-[(ethylamino)methyl]-4-methylpyridin-3-yl}-1H-indazol-3-yl)-1H-imidazole-5-carboxamide] | –
< 50 | > 120 | CCNCc1cncc(-c2ccc3[nH]nc(-c4ncc(C(=O)N[C@H]5CCCCNC5=O)[nH]4)c3c2)c1C [Example 75, 2-(5-{5-[(ethylamino)methyl]-4-methylpyridin-3-yl}-1H-indazol-3-yl)-N-[(3S)-2-oxoazepan-3-yl]-1H-imidazole-5-carboxamide] | –
50 to 200 | > 120 | COCc1cncc(-c2ccc3[nH]nc(-c4ncc[nH]4)c3c2)c1C [Example 42, 3-(1H-Imidazol-2-yl)-5-(5-methoxymethyl-4-methyl-pyridin-3-yl)-1H-indazole] | –
< 50 | 20 to 120 (≈ 40.7 to 244 µM) | CCNCc1cncc(-c2ccc3[nH]nc(-c4ncc(C(=O)N[C@@H]5CCc6ccccc65)[nH]4)c3c2)c1C [Example 51, N-[(1R)-2,3-dihydro-1H-inden-1-yl]-2-(5-{5-[(ethylamino)methyl]-4-methylpyridin-3-yl}-1H-indazol-3-yl)-1H-imidazole-5-carboxamide] | –
< 50 | < 20 | CCNCc1cncc(-c2ccc3[nH]nc(-c4nc(-c5cc(Cl)cc(Cl)c5)c(C)[nH]4)c3c2)c1C [Example 26, (5-{3-[4-(3,5-Dichloro-phenyl)-5-methyl-1H-imidazol-2-yl]-1H-indazol-5-yl}-4-methyl-pyridin-3-ylmethyl)-ethyl-amine] | –
< 50 | > 120 | CCNCc1cncc(-c2ccc3[nH]nc(-c4nc(C(=O)N5CCCCC5)c[nH]4)c3c2)c1C [Example 62, N-[(4-methyl-5-{3-[5-(piperidin-1-ylcarbonyl)-1H-imidazol-2-yl]-1H-indazol-5-yl}pyridin-3-yl)methyl]ethanamine] | –
< 50 | > 120 | CCNCc1cncc(-c2ccc3[nH]nc(-c4ncc[nH]4)c3c2)c1C [Example 1, 5-(5-ethylaminomethyl-4-methylpyridin-3-yl)-3-(1H-imidazol-2-yl)-1H-indazole] | –
< 50 | 20 to 120 (≈ 49.7 to 298 µM) | CCNCc1cncc(-c2ccc3[nH]nc(-c4nc(CC(C)C)c(C)[nH]4)c3c2)c1C [Example 20, Ethyl-{5-[3-(4-isobutyl-5-methyl-1H-imidazol-2-yl)-1H-indazol-5-yl]-4-methyl-pyridin-3-ylmethyl}-amine] | –
< 50 | > 120 | CCNCc1cncc(-c2ccc3[nH]nc(-c4nc(C(=O)NCc5cccnc5)c[nH]4)c3c2)c1C [Example 49, 2-(5-{5-[(ethylamino)methyl]-4-methylpyridin-3-yl}-1H-indazol-3-yl)-N-(pyridin-3-ylmethyl)-1H-imidazole-5-carboxamide] | –

Structure (SMILES) | Ki ([1]; read-out: CDK2 Ki) [nM] | solubility [2] [µg/mL] | Ki [1] [nM]
CCNCc1cncc(-c2ccc3[nH]nc(-c4nc(C(=O)NC5CN6CCC5CC6)c[nH]4)c3c2)c1C (stereo in doubt) [Example 73, N-[(3S)-1-azabicyclo[2.2.2]oct-3-yl]-2-(5-{5-[(ethylamino)methyl]-4-methylpyridin-3-yl}-1H-indazol-3-yl)-1H-imidazole-5-carboxamide] | 50 to 200 | > 120 | –
CCNCc1cncc(-c2ccc3[nH]nc(-c4nc(C(=O)NCCOC)c[nH]4)c3c2)c1C [Example 65, 2-(5-{5-[(ethylamino)methyl]-4-methylpyridin-3-yl}-1H-indazol-3-yl)-N-(2-methoxyethyl)-1H-imidazole-5-carboxamide] | – | > 120 | < 50
